These are literature values, as cited in US20070099846A1, “Composition containing dipeptide of histidine and alanine for reducing uric acid and method for reducing uric acid using the dipeptide” (LYTONE ENTERPRISE, INC., priority 2003, published 2007).

This data set relates to peptidase and proteases excreted from pancreas or other digestive organs.

As for `NCCC(=O)N[C@@H](Cc1cnc[nH]1)C(=O)O` [carnosine, β-alanyl-L-histidine], the “Resistance against digestion by peptidase and proteases” value was “resist against digestion”.
